# Results as given in patent publication US20240091366A1, “NOVEL ACID-SENSITIVE APTAMER TRIPTOLIDE CONJUGATE AND APPLICATIONS” (priority 2022, published 2024).
# Where “and” joins values, the source holds several entries; their conditions need not be identical. Equal entries are not always repeated.
# Key:
# [1] = test system: breast cancer cell line MDA-MB-231; test: MTT assay, cell proliferation inhibition; assay type: cell-based; conditions: for cell proliferation inhibition rate: 48 h, samples 1-3
# From the text: (§1) Material: aptamer triptolide conjugate (AS1411-TP). Triptolide (TP) was provided by Shanghai Yaji Biotechnology Co. Ltd; aptamer (AS1411) was obtained from Chengdu Pilot Drug Development Co. Ltd; trypsin, thiazolyl blue (MTT) (Biofroxx, Germany); dimethyl sulfoxide (DMSO) (MP Biomedicals, France); fetal bovine serum (FBS) (Newzerum, New Zealand); DMEM medium, RPMI1640 medium, Petri dishes, 96-well plates (Corning, USA); colon cancer cells HCT116, breast cancer cells MDA-MB-231, non-small-cell lung cancer cells A549, pancreatic cancer cells PANC-1, and hepatocellular carcinoma cells HepG2 were purchased from the Shanghai Cell Bank of the Chinese Academy of Sciences and preserved in the laboratory.
# (§2) Take the tumor cells HCT116, MDA-MB-231, A549, PANC-1 and HepG2 cell lines from the liquid nitrogen tank, place them in a 37° C. water bath, wait for the frozen cells to melt into cell suspension, centrifuge the cells at 1000 r/min for 3 min, discard the supernatant, add 1 ml of fresh complete medium containing 10% fetal bovine serum and 1% double antibody to mix the cells, then add 5 ml of medium, gently and repeatedly blowing the cells with a pipette gun to make them mix well. Then add 5 ml of medium, blow the cells gently and repeatedly with a pipette gun to mix them well, and finally transfer the cell suspension to a […] and label the cell name, cell number, date of resuscitation and the operator's name, and place it in a cell culture incubator for cultivation. (HCT116, PANC-1 and HepG2 cell lines were cultured in DMEM medium, while MDA-MB-231 cell line and A549 cell line were cultured in RPMI1640 medium).
# (§3) Take HCT116, MDA-MB-231, A549, PANC-1, HepG2 cells with good growth status, remove the medium, add 1 ml of sterile PBS to wash, add 1.5 ml of trypsin to digest the cells, about 2 min later the cells become round and fall off, add 1.5 ml of medium to terminate the digestion, transfer it to centrifugal tube, centrifuge at 1000 r/min for 3 min, discard the supernatant, add 1 ml of fresh medium to resuspend, then add fresh medium for 1:3 distribution to other culture dishes, and label the date of transmission and the number of generations. Place in the cell culture incubator for cultivation.
# (§4) Take HCT116, MDA-MB-231, A549, PANC-1, HepG2 cells with good growth status, by the same operation as the cell passaging experiment, after cell resuspension, cell counting with hemocyte counting plate, with 2500 cells/well, plant in 96-well plate, after 24 h of cell culture, remove the original medium, add medium containing different concentrations of drugs and continue to cultivate for 48 hours. After 24 h of cell culture, the original medium was removed and the medium containing different concentrations of drugs was added to continue the culture for 48 hours. […] The above steps were repeated three times.
# [2] = test system: colon cancer cell line HCT116; test: MTT assay, cell proliferation inhibition; assay type: cell-based; conditions: for cell proliferation inhibition rate: 48 h, samples 1-3
# From the text: as §1, §2, §3, §4
# [3] = test system: hepatocellular carcinoma cell line HepG2; test: MTT assay, cell proliferation inhibition; assay type: cell-based; conditions: for cell proliferation inhibition rate: 48 h, samples 1-3
# From the text: as §1, §2, §3, §4
# [4] = test system: lung adenocarcinoma cell line A549; test: MTT assay, cell proliferation inhibition; assay type: cell-based; conditions: for cell proliferation inhibition rate: 48 h, samples 1-3
# From the text: as §1, §2, §3, §4
# [5] = test system: pancreatic cancer cell line PANC-1; test: MTT assay, cell proliferation inhibition; assay type: cell-based; conditions: for cell proliferation inhibition rate: 48 h, samples 1-3
# From the text: as §1, §2, §3, §4
# [6] = Body weight during administration, colon cancer model; conditions: HCT116 model, during 8 times of administration
# Experimental: Female nude mice were reared for 6-7 weeks under standard environment, colon cancer cells HCT116 were suspended in serum-free medium, and each mouse was inoculated with 5*10^6 tumor cells. When the tumor volume reached 50-100 mm^3, the mice were randomly divided into 4 groups, and were injected with aptamer triptolide conjugate, triptolide, and aptamer by tail vein, respectively, 12 mice in each group. A PBS negative control group was set up. […] The drugs were administered once every 2 days for 8 consecutive doses, and the experiment was ended 24 hours after the last dose. At the end of the experiment, the animals were executed by breaking the cervical vertebrae, and the tumors were stripped and weighed to calculate the tumor growth inhibition rate of the drug. The t-test was used to compare the tumor weight, tumor volume, RTV and other indexes of the animals in each group.
substance,measurement,setting,value
"AS1411: nucleolin aptamer, single-stranded oligonucleotide, SEQ ID NO: 1 GGTGGTGGTGGTTGTGGTGGTGGTGG",cell proliferation inhibition rate,"[1]; MDA-MB-231, 3.1 nM, 0.0031 µM",2.2910 and 2.1209 and 2.5159
same,cell proliferation inhibition rate,"[1]; MDA-MB-231, 6.3 nM, 0.0063 µM",3.2333 and 4.9611 and 4.2994
same,cell proliferation inhibition rate,"[1]; MDA-MB-231, 25.0 nM, 0.025 µM",5.5843 and 7.7330 and 4.4586
same,cell proliferation inhibition rate,"[1]; MDA-MB-231, 50.0 nM, 0.05 µM",6.8129 and 6.6467 and 6.1306
same,cell proliferation inhibition rate,"[1]; MDA-MB-231, 100.0 nM, 0.1 µM",9.0069 and 8.0722 and 8.6624
same,cell proliferation inhibition rate,"[1]; MDA-MB-231, 200.0 nM, 0.2 µM",14.4727 and 11.8492 and 10.6369
same,inhibitory effect on tumor cell,"[1]; MDA-MB-231, at the experimental concentration",did not have any significant inhibitory effect
same,cell proliferation inhibition rate,"[2]; HCT116, 6.3 nM, 0.0063 µM",2.9669 and 1.6683 and 3.1584
same,cell proliferation inhibition rate,"[2]; HCT116, 12.5 nM, 0.0125 µM",4.1987 and 3.0229 and 2.5102
same,cell proliferation inhibition rate,"[2]; HCT116, 25.0 nM, 0.025 µM",5.4987 and 6.2971 and 5.6986
same,cell proliferation inhibition rate,"[2]; HCT116, 50.0 nM, 0.05 µM",6.5424 and 6.5952 and 5.0330
same,cell proliferation inhibition rate,"[2]; HCT116, 100.0 nM, 0.1 µM",10.6504 and 12.1637 and 10.9076
same,cell proliferation inhibition rate,"[2]; HCT116, 200.0 nM, 0.2 µM",16.9608 and 13.5881 and 14.2937
same,inhibitory effect on tumor cell,"[2]; HCT116, at the experimental concentration",did not have any significant inhibitory effect
same,cell proliferation inhibition rate,"[3]; HepG2, 3.1 nM, 0.0031 µM",2.0417 and 2.2455 and 2.1946
same,cell proliferation inhibition rate,"[3]; HepG2, 12.5 nM, 0.0125 µM",3.5280 and 2.4483 and 3.6148
same,cell proliferation inhibition rate,"[3]; HepG2, 25.0 nM, 0.025 µM",4.1258 and 3.9268 and 4.1946
same,cell proliferation inhibition rate,"[3]; HepG2, 50.0 nM, 0.05 µM",8.4300 and 6.9712 and 9.6253
same,cell proliferation inhibition rate,"[3]; HepG2, 100.0 nM, 0.1 µM",7.2906 and 11.7328 and 8.7216
same,cell proliferation inhibition rate,"[3]; HepG2, 200.0 nM, 0.2 µM",10.3764 and 15.8325 and 9.9457
same,inhibitory effect on tumor cell,"[3]; HepG2, at the experimental concentration",did not have any significant inhibitory effect
same,cell proliferation inhibition rate,"[4]; A549, 12.5 nM, 0.0125 µM",5.5843 and 7.7330 and 4.4586
same,cell proliferation inhibition rate,"[4]; A549, 25.0 nM, 0.025 µM",6.8129 and 6.6467 and 6.1306
same,cell proliferation inhibition rate,"[4]; A549, 50.0 nM, 0.05 µM",9.0069 and 8.0722 and 7.6624
same,cell proliferation inhibition rate,"[4]; A549, 100.0 nM, 0.1 µM",11.4727 and 11.8492 and 10.6369
same,cell proliferation inhibition rate,"[4]; A549, 200.0 nM, 0.2 µM",14.5704 and 11.4171 and 14.3285
same,inhibitory effect on tumor cell,"[4]; A549, at the experimental concentration",did not have any significant inhibitory effect
same,cell proliferation inhibition rate,"[5]; PANC-1, 12.5 nM, 0.0125 µM",3.6656 and 3.5639 and 3.6148
same,cell proliferation inhibition rate,"[5]; PANC-1, 25.0 nM, 0.025 µM",3.0417 and 4.2455 and 4.1946
same,cell proliferation inhibition rate,"[5]; PANC-1, 50.0 nM, 0.05 µM",7.2954 and 7.9552 and 9.6253
same,cell proliferation inhibition rate,"[5]; PANC-1, 100.0 nM, 0.1 µM",8.3147 and 7.1285 and 8.7216
same,cell proliferation inhibition rate,"[5]; PANC-1, 200.0 nM, 0.2 µM",9.6236 and 10.2679 and 9.9457
same,inhibitory effect on tumor cell,"[5]; PANC-1, at the experimental concentration",did not have any significant inhibitory effect
same,body weights of mice,[6],basically maintained in the tolerable range of animal toxicity and side-effects
